# According to the supplement of paper PMC10307832:
# Legend:
# Experiment in all cases: relative viability (nuclei count vs DMSO), 5 days (fraction); higher = more cells survive
# [1] = compound: CC(C)C[C@H](NC(=O)[C@H](CCc1ccccc1)NC(=O)CN1CCOCC1)C(=O)N[C@@H](Cc1ccccc1)C(=O)N[C@@H](CC(C)C)C(=O)[C@@]1(C)CO1 [Carfilzomib] + CS(=O)(=O)N1CCN(Cc2cc3nc(-c4cccc5[nH]ncc45)nc(N4CCOCC4)c3s2)CC1 [Pictilisib] (partner 1 µM)
# Outline: (§1)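 Relative viability equals treated-well nuclei counts divided by vehicle-well nuclei counts. Counts came from 4× images of lung cancer cell lines grown in 1536-well plates for 5 days after pin-tool dosing on the day after seeding. Dosing used one drug alone or a fixed anchor-drug dose plus five library-drug doses (not always all listed) in √10 steps, and values are medians of duplicate plates.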
# [2] = compound: C[C@@H](Oc1cc(-c2cnn(C3CCNCC3)c2)cnc1N)c1c(Cl)ccc(F)c1Cl [Crizotinib] + CC(=O)Nc1cccc(-n2c(=O)n(C3CC3)c(=O)c3c(Nc4ccc(I)cc4F)n(C)c(=O)c(C)c32)c1 [Trametinib] (partner 0.02 µM)
# Outline: as §1
# [3] = compound: C[C@@H](Oc1cc(-c2cnn(C3CCNCC3)c2)cnc1N)c1c(Cl)ccc(F)c1Cl [Crizotinib] + N=C(N)NC(=N)NCCc1ccccc1 [Phenformin] (partner 250 µM)
# Outline: as §1
# [4] = compound: O=C(c1cc(Cc2n[nH]c(=O)c3ccccc23)ccc1F)N1CCN(C(=O)C2CC2)CC1 [Olaparib] + COc1cccc2cc(-c3nc([C@H]4CC[C@H](C(=O)O)CC4)n4ncnc(N)c34)[nH]c12 [OSI-027] (partner 0.5 µM)
# Outline: as §1
Cell Line,relative viability ([1]; first compound 0.001 µM),relative viability ([1]; first compound 0.003162 µM),relative viability ([1]; first compound 0.01 µM),relative viability ([1]; first compound 0.03162 µM),relative viability ([1]; first compound 0.1 µM),relative viability ([2]; first compound 0.01 µM),relative viability ([2]; first compound 0.03162 µM),relative viability ([2]; first compound 0.1 µM),relative viability ([2]; first compound 0.3162 µM),relative viability ([2]; first compound 1 µM),relative viability ([3]; first compound 0.01 µM),relative viability ([3]; first compound 0.03162 µM),relative viability ([3]; first compound 0.1 µM),relative viability ([3]; first compound 0.3162 µM),relative viability ([3]; first compound 1 µM),relative viability ([4]; first compound 0.08 µM),relative viability ([4]; first compound 0.253 µM),relative viability ([4]; first compound 2.53 µM),relative viability ([4]; first compound 8 µM)
LOU-NH91,0.51,0.525,0.477,0.312,0.255,0.773,0.79,0.833,0.763,0.794,0.684,0.756,0.788,0.706,0.683,0.764,0.638,0.764,0.729
LU99A,0.349,0.341,0.331,0.238,0.151,0.587,0.527,0.49,0.511,0.522,0.761,0.857,0.786,0.769,1,0.31,0.274,0.288,0.258
LXF-289,0.753,0.776,0.644,0.0604,0.0625,0.666,0.668,0.726,0.57,0.693,0.494,0.512,0.54,0.406,0.557,0.955,0.761,0.759,0.755
NCI-H23,0.469,0.551,0.436,0.159,0.122,0.341,0.367,0.329,,0.393,0.743,0.855,0.783,,0.795,0.8,0.58,0.465,0.367
NCI-H322M,0.491,0.507,0.567,0.538,0.307,,0.507,0.482,0.493,0.554,0.627,0.821,0.799,0.579,0.797,0.713,0.523,0.518,0.456
NCI-H358,0.424,0.453,0.305,0.147,0.135,0.108,0.151,0.131,0.112,0.135,0.231,0.324,0.26,0.309,0.347,0.648,0.727,0.727,0.588
NCI-H441,0.486,0.569,0.144,0.105,0.141,0.405,0.475,0.59,0.382,0.446,0.671,0.87,0.713,,,0.683,0.724,0.642,0.581
NCI-H460,0.438,0.376,0.381,0.0673,0.0409,0.212,0.154,0.211,0.165,0.149,0.488,0.521,0.536,0.526,0.564,0.677,0.643,0.434,0.215
NCI-H520,0.263,0.246,0.222,0.176,0.186,0.603,0.744,0.767,0.568,0.668,0.449,0.682,0.588,0.281,0.45,0.233,0.246,0.281,0.213
NCI-H596,0.365,0.425,0.398,0.259,0.18,0.834,0.845,0.82,0.888,0.819,0.754,0.859,0.68,0.761,0.754,0.718,0.782,0.718,0.642
NCI-H647,,0.562,0.397,0.0769,0.036,0.43,0.575,0.435,0.436,0.559,0.494,0.634,0.429,0.513,0.488,0.701,0.596,0.688,0.482
NCI-H650,0.83,1.06,1.01,0.385,0.189,0.955,1.04,,,,0.392,0.451,0.482,0.365,0.44,0.631,0.498,0.5,0.414
NCI-H661,0.391,0.458,0.457,0.483,0.238,0.536,0.563,0.536,0.61,0.549,0.257,0.269,0.285,0.266,0.264,0.7,0.61,0.708,0.621
NCI-H727,0.32,0.43,0.418,0.215,0.148,0.356,0.427,0.344,0.434,0.381,,0.608,0.755,,0.511,0.91,0.619,0.546,0.471
NCI-H838,0.487,0.525,0.449,0.615,0.144,0.474,0.513,0.576,0.515,0.498,0.553,0.604,0.556,0.516,0.526,0.417,0.367,0.38,0.405
NCI-H1355,0.404,0.6,0.396,0.219,0.145,0.416,0.409,0.45,0.396,0.404,0.431,0.497,0.522,0.382,0.442,0.517,0.399,0.441,0.412
NCI-H1395,0.564,0.644,0.593,0.479,0.525,0.951,1.05,1.04,0.971,1.1,0.435,0.464,0.493,0.427,0.382,0.743,0.58,0.524,0.536

Cell Line,relative viability ([1]; first compound 0.001 µM),relative viability ([1]; first compound 0.003162 µM),relative viability ([1]; first compound 0.01 µM),relative viability ([1]; first compound 0.03162 µM),relative viability ([1]; first compound 0.1 µM),relative viability ([2]; first compound 0.01 µM),relative viability ([2]; first compound 0.03162 µM),relative viability ([2]; first compound 0.1 µM),relative viability ([2]; first compound 0.3162 µM),relative viability ([2]; first compound 1 µM),relative viability ([3]; first compound 0.01 µM),relative viability ([3]; first compound 0.03162 µM),relative viability ([3]; first compound 0.1 µM),relative viability ([3]; first compound 0.3162 µM),relative viability ([3]; first compound 1 µM),relative viability ([4]; first compound 0.08 µM),relative viability ([4]; first compound 0.253 µM),relative viability ([4]; first compound 2.53 µM),relative viability ([4]; first compound 8 µM)
NCI-H1437,0.313,0.463,0.41,0.322,0.0975,0.542,0.577,0.544,0.457,0.608,0.278,0.306,0.3,0.272,0.345,0.967,0.871,0.855,0.771
NCI-H1650,,0.685,0.284,0.127,0.151,0.548,0.605,0.607,0.559,0.58,0.411,0.401,0.387,0.377,0.389,0.842,0.515,0.72,0.816
NCI-H1651,0.551,0.601,0.231,0.0999,0.0685,0.802,0.832,0.822,0.792,0.803,0.294,0.356,0.292,0.287,0.336,0.756,0.615,0.545,0.445
NCI-H1666,0.536,0.676,0.586,0.422,0.228,0.838,0.865,0.866,,0.902,0.514,0.598,0.583,0.558,0.546,0.845,0.791,0.717,0.758
NCI-H1734,0.476,0.501,0.389,0.234,0.127,0.684,0.621,0.629,,0.67,0.358,0.368,0.385,,0.367,0.662,0.516,0.486,0.374
NCI-H1755,0.412,0.479,0.413,0.239,0.16,0.776,0.744,0.85,0.756,0.742,0.593,0.681,0.643,0.527,0.569,0.803,0.64,0.647,0.638
NCI-H1792,0.291,0.313,0.282,0.24,0.199,0.492,0.526,0.365,,0.453,,0.357,0.314,,0.328,0.759,0.652,0.712,0.669
NCI-H1915,0.973,1,0.8,0.572,0.123,0.286,0.31,0.32,0.293,0.313,0.382,0.377,0.367,,0.359,0.612,0.572,0.533,0.374
NCI-H1944,0.353,0.344,0.322,0.3,0.247,0.408,0.426,0.428,0.372,0.417,0.19,0.194,0.189,0.195,0.198,0.404,0.362,0.369,0.374
NCI-H1975,0.284,0.301,0.219,0.0929,0.101,0.338,0.326,0.363,0.373,0.402,0.376,0.419,0.4,0.41,0.399,0.761,0.703,0.848,0.758
NCI-H1993,0.756,0.771,0.717,0.648,0.61,0.631,0.454,0.506,1.07,0.46,0.493,0.51,0.534,0.507,0.509,0.585,0.502,0.389,0.527
NCI-H2009,0.859,1.07,0.753,0.126,0.0415,0.268,0.277,0.26,0.217,0.301,0.479,0.492,0.513,0.426,0.458,0.739,0.601,0.645,0.458
NCI-H2023,0.213,0.257,0.263,0.156,0.0927,0.487,0.489,0.484,0.343,0.468,0.397,0.406,0.409,0.304,0.322,0.445,0.356,0.406,0.276
NCI-H2085,0.443,0.45,0.48,0.306,0.269,0.515,0.485,0.691,0.479,0.529,0.626,0.807,0.703,,0.872,1.15,0.687,0.698,0.751
NCI-H2087,0.802,0.874,0.552,0.0964,0.18,0.145,0.206,0.214,0.23,0.172,0.36,0.502,0.508,,0.462,0.794,0.489,0.501,0.49
NCI-H2126,0.557,0.477,0.512,0.555,0.446,0.511,0.539,0.557,0.55,0.591,0.464,0.591,0.511,0.528,0.507,0.766,0.669,0.794,0.639
NCI-H2170,0.317,0.349,0.327,0.283,0.163,0.859,0.993,0.869,0.928,0.909,0.394,0.443,0.419,0.428,0.423,0.809,0.685,0.679,0.694
